Reference: patent publication US20070117770A1, “Human ribosomal DNA (rDNA) and ribosomal RNA (rRNA) nucleic acids and uses thereof” (Cylene Pharmaceuticals, Inc., priority 2005, published 2007)

What was measured:
Experiment in all cases: Protein kinase inhibition assay
Assay type in all cases: biochemical
[1] = molecular target: Blk(m) (Mus musculus, UniProt P16277); conditions: read-out: percent residual activity of Blk(m)
Experimental: (§1) Certain compounds were tested for activity in protein kinase inhibition assays. All substrates were dissolved and diluted to working stocks in de-ionized water, apart from histone H1 (10× working stock in 20 mM MOPS pH 7.0), PDKtide (10× working stock in 50 mM Tris pH 7.0) ATF2 (which is typically stored at a 20× working stock in 50 mM Tris pH 7.5, 150 mM NaCl, 0.1 mM EGTA, 0.03% Brij-35, 50% glycerol, 1 mM benzamidine, 0.2 mM PMSF and 0.1% R-mercaptoethanol), KKLNRTLSFAEPG (SEQ ID NO:203) and RRRLSFAEPG (SEQ ID NO:204) (50 mM HEPES pH 7.4) and GGEEEEYFELVKKKK (SEQ ID NO:205) (20 mM MOPS pH 7.0). All kinases were pre-diluted to a 10× working concentration prior to addition into the assay. The composition of the dilution buffer for each kinase is detailed below.
(§2) In a final reaction volume of 25 μl, Blk (m) (5-10 mU) is incubated with 50 mM Tris pH 7.5, 0.1 mM EGTA, 0.1 mM Na3VO4, 0.1% R-mercaptoethanol, 0.1 mg/ml poly(Glu, Tyr) 4:1, 10 mM MgAcetate and [gamma-33P-ATP] (specific activity approx. 500 cpm/pmol, concentration as required). The reaction is initiated by the addition of the MgATP mix. After incubation for 40 minutes at room temperature, the reaction is stopped by the addition of 5 μl of a 3% phosphoric acid solution. […]

[2] = molecular target: CK2(h) (Homo sapiens, UniProt P68400); conditions: read-out: percent residual activity of CK2(h)
Experimental: as §1
In a final reaction volume of 25 μl, CK2 (h) (5-10 mU) is incubated with 20 mM HEPES pH 7.6, 0.15 M NaCl, 0.1 mM EDTA, 5 mM DTT, 0.1% Triton X-100, 165 μM RRRDDDSDDD (SEQ ID NO:215), 10 mM MgAcetate and [gamma-33P-ATP] (specific activity approx. 500 cpm/pmol, concentration as required). The reaction is initiated by the addition of the MgATP mix. After incubation for 40 minutes at room temperature, the reaction is stopped by the addition of 5 μl of a 3% phosphoric acid solution. […]

[3] = molecular target: Fer(h) (Homo sapiens, UniProt P16591); conditions: read-out: percent residual activity of Fer(h)
Experimental: as §1
In a final reaction volume of 25 μl, Fer (h) (5-10 mU) is incubated with 8 mM MOPS pH 7.0, 0.2 mM EDTA, 1 mM MnCl2, 250 μM KKKSPGEYVNIEFG (SEQ ID NO:207), 10 mM MgAcetate and [gamma-33P-ATP] (specific activity approx. 500 cpm/pmol, concentration as required). The reaction is initiated by the addition of the MgATP mix. After incubation for 40 minutes at room temperature, the reaction is stopped by the addition of 5 μl of a 3% phosphoric acid solution. […]

[4] = molecular target: FGFR2(h) (Homo sapiens, UniProt P21802); conditions: read-out: percent residual activity of FGFR2(h)
Experimental: as §1
(§3) In a final reaction volume of 25 μl, FGFR2 (h) (5-10 mU) is incubated with 8 mM MOPS pH 7.0, 0.2 mM EDTA, 2.5 mM MnCl2, 0.1 mg/ml poly(Glu, Tyr) 4:1, 10 mM MgAcetate and [gamma-33P-ATP] (specific activity approx. 500 cpm/pmol, concentration as required). The reaction is initiated by the addition of the MgATP mix. After incubation for 40 minutes at room temperature, the reaction is stopped by the addition of 5 μl of a 3% phosphoric acid solution. 10 μl of the reaction is then spotted onto a Filtermat A and washed three times for 5 minutes in 75 mM phosphoric acid and once in methanol prior to drying and scintillation counting.

[5] = molecular target: Lck(h) (Homo sapiens, UniProt P06239); conditions: read-out: percent residual activity of Lck(h)
Experimental: as §1
as §2, with “Lck (h)” for “Blk (m)”, “250 μM KVEKIGEGTYGVVYK (SEQ ID NO:211) (Cdc2 peptide),” for “0.1% R-mercaptoethanol, 0.1 mg/ml poly(Glu, Tyr) 4:1,”

[6] = molecular target: PAR-1Bα(h) (Homo sapiens, UniProt Q7KZI7); conditions: read-out: percent residual activity of PAR-1Bα(h)
Experimental: as §1
as §3, with “μl, PAR-1Bα” for “μl, FGFR2”, “EDTA, 100 μM […] (SEQ ID NO:213),” for “EDTA, 2.5 mM MnCl2, 0.1 mg/ml poly(Glu, Tyr) 4:1,”, “10 pi” for “10 μl”, “a P30 filtermat” for “a Filtermat A”

Sequence of Fer(h) (P16591 whole entry): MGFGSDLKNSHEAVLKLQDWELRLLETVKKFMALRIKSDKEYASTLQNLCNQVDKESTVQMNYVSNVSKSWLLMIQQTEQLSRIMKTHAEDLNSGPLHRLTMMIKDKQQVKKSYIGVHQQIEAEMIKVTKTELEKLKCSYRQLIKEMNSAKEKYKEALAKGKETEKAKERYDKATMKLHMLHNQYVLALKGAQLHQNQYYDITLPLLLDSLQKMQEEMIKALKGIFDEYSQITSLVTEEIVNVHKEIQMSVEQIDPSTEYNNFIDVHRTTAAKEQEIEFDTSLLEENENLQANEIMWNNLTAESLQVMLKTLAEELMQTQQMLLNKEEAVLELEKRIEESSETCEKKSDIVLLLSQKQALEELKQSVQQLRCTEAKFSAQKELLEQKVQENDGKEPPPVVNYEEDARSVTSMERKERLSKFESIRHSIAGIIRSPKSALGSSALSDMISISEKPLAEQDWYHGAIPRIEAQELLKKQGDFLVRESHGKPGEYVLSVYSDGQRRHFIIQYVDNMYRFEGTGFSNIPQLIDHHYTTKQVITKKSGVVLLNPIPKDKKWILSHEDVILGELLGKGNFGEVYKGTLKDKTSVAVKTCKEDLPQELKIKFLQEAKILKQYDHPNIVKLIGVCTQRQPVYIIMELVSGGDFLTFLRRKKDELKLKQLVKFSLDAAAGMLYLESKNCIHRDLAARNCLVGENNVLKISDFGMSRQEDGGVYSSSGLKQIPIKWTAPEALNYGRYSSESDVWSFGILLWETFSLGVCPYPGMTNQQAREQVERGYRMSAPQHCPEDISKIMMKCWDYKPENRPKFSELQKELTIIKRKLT
Sequence of Lck(h) (P06239 whole entry): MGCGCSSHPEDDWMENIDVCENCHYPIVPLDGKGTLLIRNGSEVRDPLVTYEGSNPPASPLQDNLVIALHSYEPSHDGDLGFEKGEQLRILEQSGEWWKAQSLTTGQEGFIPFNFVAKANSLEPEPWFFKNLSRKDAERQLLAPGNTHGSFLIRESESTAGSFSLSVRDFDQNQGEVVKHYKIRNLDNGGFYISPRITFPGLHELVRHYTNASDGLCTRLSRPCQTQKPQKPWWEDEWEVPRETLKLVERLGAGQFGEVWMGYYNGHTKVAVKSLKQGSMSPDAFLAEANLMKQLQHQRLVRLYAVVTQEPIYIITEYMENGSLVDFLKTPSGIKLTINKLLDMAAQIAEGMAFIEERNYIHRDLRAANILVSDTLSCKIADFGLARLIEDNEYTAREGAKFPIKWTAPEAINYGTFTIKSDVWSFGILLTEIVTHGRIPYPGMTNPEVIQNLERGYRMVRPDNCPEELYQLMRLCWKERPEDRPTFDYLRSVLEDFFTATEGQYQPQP
Sequence of FGFR2(h) (P21802 22-821): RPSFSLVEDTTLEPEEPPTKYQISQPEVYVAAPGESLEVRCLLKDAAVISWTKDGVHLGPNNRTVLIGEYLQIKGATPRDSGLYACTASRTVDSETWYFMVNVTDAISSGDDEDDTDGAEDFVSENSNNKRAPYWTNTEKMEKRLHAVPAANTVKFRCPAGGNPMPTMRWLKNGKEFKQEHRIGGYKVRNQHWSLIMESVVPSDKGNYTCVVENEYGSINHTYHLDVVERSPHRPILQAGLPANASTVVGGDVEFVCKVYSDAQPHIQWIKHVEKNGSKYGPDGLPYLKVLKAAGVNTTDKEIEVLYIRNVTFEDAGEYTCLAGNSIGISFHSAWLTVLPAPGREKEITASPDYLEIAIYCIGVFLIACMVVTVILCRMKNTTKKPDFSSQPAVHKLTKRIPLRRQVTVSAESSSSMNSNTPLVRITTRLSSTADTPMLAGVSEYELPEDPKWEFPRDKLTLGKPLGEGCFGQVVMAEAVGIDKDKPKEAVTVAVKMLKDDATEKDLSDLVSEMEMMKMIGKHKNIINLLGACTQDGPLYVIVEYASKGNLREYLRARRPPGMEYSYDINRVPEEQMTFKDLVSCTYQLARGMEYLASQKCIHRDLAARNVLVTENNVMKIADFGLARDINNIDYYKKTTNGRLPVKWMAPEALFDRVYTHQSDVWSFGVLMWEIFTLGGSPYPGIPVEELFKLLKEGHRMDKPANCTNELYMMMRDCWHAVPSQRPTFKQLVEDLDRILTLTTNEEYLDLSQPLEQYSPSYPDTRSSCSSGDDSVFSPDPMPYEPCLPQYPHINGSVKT
Sequence of PAR-1Bα(h) (Q7KZI7 1-725 isoform Q7KZI7-4): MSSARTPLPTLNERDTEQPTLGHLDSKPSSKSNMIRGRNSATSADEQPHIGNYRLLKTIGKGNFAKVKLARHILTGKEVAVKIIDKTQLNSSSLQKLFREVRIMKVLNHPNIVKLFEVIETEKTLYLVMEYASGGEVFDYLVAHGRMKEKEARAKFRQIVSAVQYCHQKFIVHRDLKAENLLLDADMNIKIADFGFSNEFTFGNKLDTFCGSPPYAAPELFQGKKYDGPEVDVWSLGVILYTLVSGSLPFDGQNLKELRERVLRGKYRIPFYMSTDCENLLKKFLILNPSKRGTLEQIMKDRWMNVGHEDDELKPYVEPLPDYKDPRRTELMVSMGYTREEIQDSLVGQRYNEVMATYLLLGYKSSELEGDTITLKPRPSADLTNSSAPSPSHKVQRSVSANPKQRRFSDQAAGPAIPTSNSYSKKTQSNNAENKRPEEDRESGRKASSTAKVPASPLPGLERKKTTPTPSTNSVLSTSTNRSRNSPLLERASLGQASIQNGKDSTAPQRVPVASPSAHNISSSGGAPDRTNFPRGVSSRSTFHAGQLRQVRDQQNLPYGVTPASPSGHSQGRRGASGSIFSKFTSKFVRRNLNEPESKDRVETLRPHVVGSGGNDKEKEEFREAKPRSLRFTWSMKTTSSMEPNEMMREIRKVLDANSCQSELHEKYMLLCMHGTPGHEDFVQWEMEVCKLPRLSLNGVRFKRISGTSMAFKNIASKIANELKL
Sequence of Blk(m) (P16277 whole entry): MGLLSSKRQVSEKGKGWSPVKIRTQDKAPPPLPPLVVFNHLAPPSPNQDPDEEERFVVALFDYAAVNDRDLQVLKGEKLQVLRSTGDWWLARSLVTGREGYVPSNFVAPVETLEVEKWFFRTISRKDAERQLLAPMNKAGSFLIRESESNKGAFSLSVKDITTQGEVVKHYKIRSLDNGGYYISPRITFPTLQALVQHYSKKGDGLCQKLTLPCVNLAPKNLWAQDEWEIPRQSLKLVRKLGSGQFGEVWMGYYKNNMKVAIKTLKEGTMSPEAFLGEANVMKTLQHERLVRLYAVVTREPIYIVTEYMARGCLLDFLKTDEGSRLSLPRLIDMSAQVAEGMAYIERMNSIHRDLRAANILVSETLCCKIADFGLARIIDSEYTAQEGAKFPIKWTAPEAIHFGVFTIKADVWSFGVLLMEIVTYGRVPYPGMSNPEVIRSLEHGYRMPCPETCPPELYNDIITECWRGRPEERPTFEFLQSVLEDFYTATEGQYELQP
Sequence of CK2(h) (P68400 whole entry): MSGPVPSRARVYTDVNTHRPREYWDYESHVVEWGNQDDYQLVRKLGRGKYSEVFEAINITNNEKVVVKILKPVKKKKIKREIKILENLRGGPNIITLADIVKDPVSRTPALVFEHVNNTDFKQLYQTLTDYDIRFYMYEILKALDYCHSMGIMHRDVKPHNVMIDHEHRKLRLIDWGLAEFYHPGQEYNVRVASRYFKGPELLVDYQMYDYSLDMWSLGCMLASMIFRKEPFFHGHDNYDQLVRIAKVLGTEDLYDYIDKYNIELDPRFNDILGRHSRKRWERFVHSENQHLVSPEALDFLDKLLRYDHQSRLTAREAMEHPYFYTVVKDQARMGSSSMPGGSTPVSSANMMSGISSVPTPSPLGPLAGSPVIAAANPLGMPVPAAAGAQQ
Sequence of CK2(h) (P67870 whole entry partner): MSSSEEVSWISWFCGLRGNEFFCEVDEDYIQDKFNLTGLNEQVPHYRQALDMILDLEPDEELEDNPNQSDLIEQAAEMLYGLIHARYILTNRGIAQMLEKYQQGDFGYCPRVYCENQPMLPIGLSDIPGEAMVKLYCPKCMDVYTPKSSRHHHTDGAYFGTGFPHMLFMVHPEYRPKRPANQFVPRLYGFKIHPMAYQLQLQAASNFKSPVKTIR

Row | Structure (SMILES) | remaining activity at 2.5 µM [1] | remaining activity at 2.5 µM [2] | remaining activity at 2.5 µM [3] | remaining activity at 2.5 µM [4] | remaining activity at 2.5 µM [5] | remaining activity at 2.5 µM [6]
1 | CN1CCCC1CCNC(=O)c1cn2c3c(c(N4CCC(c5cnccn5)C4)c(F)cc3c1=O)Oc1cc3ccccc3cc1-2 (stereo not drawn) [Compound A-1] | 117% | 104% | 84% | 76% | 170% | 88%
2 | CC(=O)N1CCN(c2ccc3c(=O)c(C(=O)NCCN4CCCC4)c4n(C)c5ccccc5n4c3n2)CC1 [Compound B-1] | 106% | 102% | 94% | 89% | 115% | 100%
